{
  "source": "paper PMC4935942",
  "about": "“Efficient Inhibition of Hepatitis B Virus Infection by a preS1-binding Peptide” (Scientific Reports, 2016)",
  "key": {"[1]": {"tested_on": "binding of preS1/2-48^myr-FITC to PMH", "test": "Inhibition of preS1/2-48^myr-FITC binding to PMH", "type": "cell-based, mouse (C57BL/6)", "conditions": "0.5 μM preS1/2-48^myr-FITC, 100 μM peptide (200-fold molar excess), 4 h at 37 °C; confocal microscopy", "protocol": "PMH and HepG2 cells were seeded into 12-well plates at a density of 1 × 10^5 cells per well and cultured in WEM and DMEM without FBS respectively. […] Cell nuclei were stained with DAPI (4′6′-diamidino-2-phenylindole) (Sangon, Shanghai, China) for 10 minutes at room temperature. Cells were examined using a confocal microscope (Leica Biosystems, Germany)."}, "PHH": {"tested_on": "PHH", "conditions": "0.05 nM to 500 μM; 24 h; CellTiter-Glo", "procedure": "PHH and PTH were seeded into collagen-coated 96-well plates at 5 × 10^4 cells per well."}, "HBV infection of PHH [2]": {"tested_on": "HBV infection of PHH", "test": "HBV infection of primary human hepatocytes", "conditions": "for pIC50: pooled patient sera (genotypes B and C), MOI 400, day 14 post infection, ELISA, printed with 'about'", "procedure": "(§6) Freshly isolated PTH were seeded into collagen-coated 6-well plates (BD Biosciences, San Jose, CA) and maintained in Hepato-Stim Hepatocyte Defined medium (HDM) (BD Biosciences) at 5 × 10^5 cells per well. Twenty-four hours post-seeding, PTH were infected with concentrated viruses prepared from HepAD38 supernatants (genotype D) at a multiplicity of infection (MOI) of 100 GE per cell. […] After incubation at 37 °C overnight, cells were washed 5 times with PBS and cultivated for 12 days. For HBV infection of PHH, freshly prepared PHH were seeded into collagen-coated wells in supplemented WEM at 5 × 10^5 cells per well. […] PTH and PHH culture media were changed every two days, and hepatitis B surface antigen (HBsAg) and e antigen (HBeAg) in collected supernatants were determined using enzyme linked immunosorbent assay (ELISA) kits (Kehua). All infections were repeated at least twice."}, "HBV attachment to PMH [3]": {"tested_on": "HBV attachment to PMH", "test": "HBV attachment to PMH (immunofluorescent staining of cell-bound HBsAg)", "type": "cell-based, Hepatitis B virus", "conditions": "1 μM; immunofluorescence", "protocol": "(§1) For HBV attachment assays, viruses in HepAD38 supernatants were precipitated in 10% polyethylene glycol (PEG) 8000 (Sangon) for 16 hours at 4 °C, centrifuged at 7,000 × g for 1 hour at 4 °C and resuspended in DMEM. Viral titers were determined using a real-time PCR kit (Qiagen, Düsseldorf, Germany) and represented as genome equivalent per milliliter (GE/ml). […] After incubation at 37 °C for 4 hours, cells were washed repeatedly with ice-cold PBS. Viral DNA was prepared from cell lysate with DNeasy Blood Kit (Qiagen) and quantified using real-time PCR with primers 5′-[…] -3′ and 5′-[…] -3′.\n(§2) PHH at 14 days post infection and PTH at 12 days post infection were washed 3 times with ice-cold PBS and fixed in 3.7% paraformaldehyde in PBS for 15 min at room temperature. Cells were washed, permeabilized with 0.5% Triton X-100 in PBS, washed again and incubated in 1% BSA in PBST for 30 minutes at room temperature. Cells were then stained with a polyclonal rabbit anti-HBcAg (1:700 dilution, Dako, Inc, Carpinteria, CA) overnight at 4 °C in a humidified chamber. After washing, PHH and PTH were incubated with Alexa Fluor 488 goat anti-rabbit IgG (H+L) and Alexa Fluor 546 goat anti-rabbit IgG (H+L) (1:1000 dilution, Life Technologies, USA) for 1 hour at room temperature in dark, respectively. After 3 washes in dark, cells were stained with DAPI for 10 minutes at room temperature. […]"}, "HBV infection of PHH [4]": {"tested_on": "HBV infection of PHH", "test": "Intracellular HBcAg expression in HBV-infected PHH (immunofluorescence)", "type": "cell-based, Hepatitis B virus", "conditions": "day 14 post-infection", "protocol": "(§3) All infections were repeated at least twice.\n(§4) PHH at 14 days post infection and PTH at 12 days post infection were washed 3 times with ice-cold PBS and fixed in 3.7% paraformaldehyde in PBS for 15 min at room temperature. Cells were washed, permeabilized with 0.5% Triton X-100 in PBS, washed again and incubated in 1% BSA in PBST for 30 minutes at room temperature. Cells were then stained with a polyclonal rabbit anti-HBcAg (1:700 dilution, Dako, Inc, Carpinteria, CA) overnight at 4 °C in a humidified chamber. After washing, PHH and PTH were incubated with Alexa Fluor 488 goat anti-rabbit IgG (H+L) and Alexa Fluor 546 goat anti-rabbit IgG (H+L) (1:1000 dilution, Life Technologies, USA) for 1 hour at room temperature in dark, respectively. After 3 washes in dark, cells were stained with DAPI for 10 minutes at room temperature. For detection of HBV attached to PMH and HepG2 cells, cells were stained with a mouse monoclonal anti-HBsAg (1:1000 dilution, Dako) followed by Alexa Fluor 488 goat anti-mouse IgG (H+L) (1:1000 dilution, Life Technologies). Cells were examined under a confocal microscope (Leica Biosystems)."}, "[5]": {"tested_on": "HBV attachment to HepG2 cells", "test": "HBV attachment to HepG2 cells", "type": "cell-based, Hepatitis B virus", "conditions": "real-time PCR and immunofluorescent staining of HBsAg; viruses pre-incubated with 4B10 0.1 nM, 10 nM or 1 μM", "protocol": "as §1, §2"}, "HBV particles": {"tested_on": "HBV particles", "test": "HBV virus capture assay", "type": "binding, Hepatitis B virus", "conditions": "1 × 10^6 viruses per well from pooled HBV positive serum; 4 °C for 4 h; HRP-labeled HBsAg antibody, absorbance at 450 nm", "protocol": "(§5) The N-biotinylated B10 monomer or concatemers (Fig. 1A) (2 μg/well) was applied into the streptavidin-coated wells and incubated for 45 minutes at room temperature. Wells were washed with PBST (0.05% Tween 20 in PBS). […] Excess preS1/2-48^myr-FITC peptides were removed with PBST. Fluorescence intensity was then measured using a VICTOR X multilabel reader (Perkin Elmer, Waltham, MA). In virus capture assays, 1 × 10^6 viruses from pooled HBV positive serum (Ruijin Hospital, Shanghai) were applied per well. After incubation at 4 °C for 4 hours, wells were washed and 100 μl of horseradish peroxidase-labeled HBsAg antibody (Kehua, Shanghai, China) was added and incubated for 1 hour at room temperature. The absorbance at 450 nm was measured."}, "HBV infection of PTH [6]": {"tested_on": "HBV infection of PTH", "procedure": "as §6"}, "HepG2 cells": {"tested_on": "HepG2 cells", "conditions": "4B10 0.01 μM, 1 μM and 100 μM, or LA-20; 72 h; CCK-8", "procedure": "(§7) To rule out potential cytotoxicity of the peptides, the viability of cells exposed to 4B10 (0.01 μM, 1 μM and 100 μM) or LA-20 for 72 hours was analyzed.\n(§8) For PTH, cells were cultured in medium containing 4B10 and LA-20 (0.01 μM, 1 μM or 100 μM) and viability measured using cell counting kit-8 (CCK-8) (Dojindo, Japan)."}, "HIV-1": {"tested_on": "HIV-1", "conditions": "TZM-bl cells; strains B12 and SH1.81, 200 TCID50; 4B10 up to 100 μM; luciferase, 48 h post infection", "procedure": "The infection of two strains of tat-expressing, replication deficient HIV-1, B12 and SH1.81, was tested on TZM-bl cells harboring HIV-1 LTR-luciferase reporter[30]. Envelope proteins of B12 and SH1.81 were derived from HIV-1 B and A/E recombinant subtype, respectively. […] Forty-eight hours post infection, intracellular luciferase activity was measured with a luciferase assay kit (Promega, Madison, WI)."}, "preS1/2-48^myr": {"tested_on": "preS1/2-48^myr", "test": "preS1/2-48^myr-FITC binding to immobilized N-biotinylated B10 monomer/concatemers", "set-up": "species or system HBV (genotype D)", "conditions": "N-biotinylated peptide 2 μg/well on streptavidin-coated wells; 1 h at room temperature; fluorescence", "protocol": "as §5"}, "[7]": {"tested_on": "VSV-G pseudotyped lentivirus", "type": "cell-based"}, "PMH": {"tested_on": "PMH", "conditions": "4B10 0.01 μM, 1 μM and 100 μM, or LA-20; 72 h; CCK-8", "procedure": "as §7, §8"}, "HBV attachment to PMH [8]": {"tested_on": "HBV attachment to PMH", "test": "HBV attachment to PMH (real-time PCR)", "type": "cell-based, Hepatitis B virus", "conditions": "1 × 10^7 GE/well viruses pre-incubated 30 min at 37 °C, 4 h at 37 °C, triplicate, repeated at least three times", "protocol": "as §1"}, "[9]": {"tested_on": "primary mouse hepatocytes (PMH)", "test": "Flow cytometry binding of FITC-labelled peptides to PMH", "conditions": "discussion; Fig. 3A"}, "HBV infection of PTH [10]": {"tested_on": "HBV infection of PTH", "test": "Intracellular HBcAg expression in HBV-infected PTH (immunofluorescence)", "type": "cell-based, Hepatitis B virus", "conditions": "day 12 post-infection", "protocol": "as §3, §4"}, "[11]": {"conditions": "PTH, 4B10 0.01-100 nM or LA-20 100 nM, ELISA"}},
  "note": "pIC50: −log10 of the molar value. Like-named read-outs stand apart in the source and are kept apart here. Where no end group is shown, it is not given here.",
  "data": [
    {"sequence": "LRNIRLRNIRLRNIRLRNIR [4B10]", "values": [
      {"measurement": "inhibition of binding of preS1/2-48^myr-FITC to PMH", "setting": "[1]", "value": "completely blocked"},
      {"measurement": "cytotoxic effect on PHH", "setting": "PHH", "value": "No cytotoxicity was observed"},
      {"measurement": "inhibition of HBV infection (in words)", "setting": "HBV infection of PHH [2]; PHH, 4B10 0.05-500 nM", "value": "Dose-dependent and efficient inhibition of HBV infection"},
      {"measurement": "inhibition of HBV infection of primary human hepatocytes", "setting": "HBV infection of PHH [2]; abstract", "value": "low nanomolar concentrations"},
      {"measurement": "pIC50", "setting": "HBV infection of PHH [2]; read-out: IC50 based on HBeAg measurement, PHH", "value": "8.30 to 9.30"},
      {"measurement": "pIC50", "setting": "HBV infection of PHH [2]; read-out: IC50 based on HBsAg measurement, PHH", "value": "9.30 to 10.30"},
      {"measurement": "inhibition of infection by genotype B and C viruses", "setting": "HBV infection of PHH [2]; viruses from HBV-infected patients", "value": "could inhibit the infection of genotype B and C viruses"},
      {"measurement": "HBV attachment to PMH (HBsAg staining)", "setting": "HBV attachment to PMH [3]", "value": "markedly reduced"},
      {"measurement": "post-infection HBcAg expression", "setting": "HBV infection of PHH [4]", "value": "dose-dependent decrease in post-infection HBcAg expression"},
      {"measurement": "HBV attachment to HepG2 cells", "setting": "[5]", "value": "inhibited HBV attachment to HepG2 cells"},
      {"measurement": "HBV-binding activity", "setting": "HBV particles", "value": "showed the highest binding activity"},
      {"measurement": "inhibition of HBV infection of primary tupaia hepatocytes", "setting": "HBV infection of PTH [6]", "value": "low nanomolar concentrations"},
      {"measurement": "effect on post-infection HBeAg expression", "setting": "HBV infection of PTH [6]; [11]", "value": "dose-dependent decrease"},
      {"measurement": "effect on post-infection HBsAg expression", "setting": "HBV infection of PTH [6]; [11]", "value": "dose-dependent decrease"},
      {"measurement": "pIC50", "setting": "HBV infection of PTH [6]; infection of PTH", "value": "9.00 to 10.00"},
      {"measurement": "inhibition of infection by genotype D viruses", "setting": "HBV infection of PTH [6]; viruses derived from HepAD38 cells", "value": "could inhibit the infection of genotype B and C viruses from HBV-infected patients as well as genotype D viruses"},
      {"measurement": "cytotoxic effect on HepG2 cells", "setting": "HepG2 cells", "value": "No notable cytotoxic effect"},
      {"measurement": "inhibitory effect on infection of HIV-1", "setting": "HIV-1", "value": "no inhibitory effect"},
      {"measurement": "preS1-binding activity (preS1/2-48^myr-FITC)", "setting": "preS1/2-48^myr", "value": "showed the highest binding activity"},
      {"measurement": "inhibitory effect on infection of VSV-G pseudotyped lentivirus", "setting": "[7]", "value": "no inhibitory effect"},
      {"measurement": "cytotoxic effect on PMH", "setting": "PMH", "value": "No notable cytotoxic effect"},
      {"measurement": "reduction of PMH-associated virions", "setting": "HBV attachment to PMH [8]; 0.1 nM", "value": 39, "unit": "%"},
      {"measurement": "reduction of PMH-associated virions", "setting": "HBV attachment to PMH [8]; 10 nM", "value": 56, "unit": "%"},
      {"measurement": "reduction of PMH-associated virions", "setting": "HBV attachment to PMH [8]; 1 μM", "value": 74, "unit": "%"},
      {"measurement": "binding to primary hepatocytes", "setting": "[9]", "value": "does not bind"},
      {"measurement": "post-infection HBcAg expression", "setting": "HBV infection of PTH [10]", "value": "dose-dependent decrease in post-infection HBcAg expression"}
    ]}
  ]
}
